Test results: a melting point compilation (Tetko et al.; mined from patent text by program, amines drawn as free bases though some values may be those of a salt)

Row | Structure (SMILES) | melting point [°C]
1 | Cc1c(-c2cccn2C)c(N2CC[C@H](N(C)C)C2)c2oc(C3CC3)nc2c1C#N | 127 to 128
2 | COC(=O)c1cc(C(=O)NNC(C)=O)c2cc(Cc3ccc(F)cc3)cnc2c1O | 208 to 209
3 | C#CCn1cc(F)cnc1=O | 107 to 108
4 | NS(=O)(=O)c1ccc(-n2nc(C(F)(F)F)cc2-c2ccc(-c3cscn3)c(C(F)(F)F)c2)cc1F | 140 to 142
5 | CC(=O)Nc1cc(C)c(OC(C)=O)cc1C | 177
6 | CCOc1ccc(SCCSc2ccc(OCC)cc2)cc1 | 90
7 | CC1CCN(c2cc3nc(C(C)(C)C)sc3cc2N=C=S)CC1 | 54 to 58
8 | O=C(O)Cc1nc(C(=O)c2ccccc2)no1 | 143 to 144
9 | NCc1ccc(C2CCN(c3c(F)c(N)c4c(=O)c(C(=O)O)cn(C5CC5)c4c3F)C2)cc1 (stereo unspecified) | 225 to 227
10 | CC(C)C(NC(=O)Cn1cccc(NC(=O)CCc2ccccc2)c1=O)C(=O)C(F)(F)F (stereo unspecified) | 154 to 155
11 | O=C1NCC(Cc2ccc(Br)cc2)O1 (stereo unspecified) | 115 to 117
12 | Cc1ccc2c(c1)C1=NN(C(=O)c3cccnc3)CC1CO2 (stereo unspecified) | 177 to 178
13 | Cn1ncc(C(=O)O)c1C(=O)Nc1ccn2nc(-c3cccc(F)c3)nc2c1 | > 260
14 | NS(=O)(=O)c1cccc2c1CSC2 | 146 to 148
15 | CCOc1cc2c(Nc3cc(OC)c(Cl)cc3Cl)c(C#N)cnc2cc1NC(C)=O | 245 to 248
16 | COc1cc(NC(=O)OC(C)(C)C)c(N)cc1C#Cc1ccccc1 | 158
17 | CCN(C(=O)Cl)c1ccc2c(c1)OCO2 | 68 to 69
18 | COC(=O)C1=C(C)NC(C)=C(C(=O)OCC=Cc2ccccc2)C1c1cccc([N+](=O)[O-])c1 (stereo unspecified) | 143 to 144
19 | O=C(NCc1ccc(F)cc1)N1CCC(Oc2ccc(CCNC[C@H](O)COc3ccc(O)cc3)cc2)CC1 | 126 to 128
20 | CC1(O)C(CO)OC(n2cnc3c(N)ncnc32)C1(C)O (stereo unspecified) | 180
21 | O=C(c1ccccc1)c1c[nH]c2cnccc12 | 218 to 220
22 | COC(COC(C)=O)C1(O)CCC2C3CCC4=CC(=O)CCC4(C)C3CCC21C (stereo unspecified) | 145 to 147
23 | O=C(c1ccc2nc(C3CC3)n(Cc3ccccc3Cl)c2c1)C1CNCCO1 (stereo unspecified) | 193 to 195
24 | CN(C)CCn1c(=O)c2cc(N)ccc2c2cnc3cc4c(cc3c21)OCO4 | 245 to 246
25 | Cc1csc2ncc(C(O)CCc3ccc(Br)cc3)n12 (stereo unspecified) | 175 to 178
26 | CC(Br)C(=O)c1ccc2oc(=O)[nH]c2c1 (stereo unspecified) | 191 to 193

Row | Structure (SMILES) | melting point [°C]
27 | Fc1ccc2[nH]cc(CC3CCNCC3)c2c1 | 155 to 157
28 | Nc1nc(C(F)(F)F)cc(C(F)(F)F)n1 | 94.5 to 96
29 | COc1ccc2nc(C)n(-c3ccccc3)c2n1 | 114 to 116
30 | CCn1cc(C(=O)O)c(=O)c2cc(F)c(-c3ccnc(CNC(=O)OCc4ccccc4)n3)c(F)c21 | 195 to 196
31 | Cn1cc(C2=C(c3cn(CCCNC(N)=O)c4ccccc34)C(=O)NC2=O)c2ccccc21 | 248 to 250
32 | CCOC(=O)c1cc(Br)c(OCCO)c(-c2cccc(Cl)c2)c1 | 108 to 110
33 | CCCCOc1c(C(=O)O)n(CC(C)C)c(=O)c2ccc(OCc3ccccc3)cc12 | 151 to 152
34 | Cn1c(CCN2CCN(c3ccccc3)CC2)nc2c3ccccc3ccc21 | 153 to 155
35 | CC(C)(C)OC(=O)COc1ccc(-c2c(Cl)c(CN3C(=O)CCC3=O)nc3sc4c(c23)CCS(=O)C4)cc1 (stereo unspecified) | 175 to 176
36 | CCCCCC(CC(=O)Nc1cc(C(=O)NC(=O)C(C)C)ccc1C(C)(C)C)c1ccc(OC)cc1OC (stereo unspecified) | 157 to 159
37 | CCCCNC(=O)c1ccc(N2CCN(c3ccncc3)CC2)cc1 | 172 to 174
38 | CC(OC(=O)C1CC(=O)c2cc(F)ccc2O1)c1ccccc1 (single isomer, unassigned; (+)) | 98
39 | COC(=O)NCCSc1cccc2nccn12 | 198 to 200
40 | CNC(=O)c1c(NC)ncn1Cc1ccccc1 | 113 to 114
41 | CN(CCOc1ccc(CC2SC(=O)NC2=O)cc1)C(=O)c1ccccc1 (stereo unspecified) | 139 to 142
42 | O=C1c2ccc(N3CCCC3)c3cc(Br)cc(c23)C(=O)N1O | 234 to 235
43 | CCCOc1ccc(-c2ccc3c(c2)C=C(C(=O)O)CCS3(=O)=O)cc1 | 270 to 273
44 | CC(C)=CC(O)C(Br)(Br)Br (stereo unspecified) | 81.5 to 82
45 | CC(C)C(c1ccc(CC(N)=O)cc1)n1ccnc1 (stereo unspecified) | 244
46 | COc1ccc(CN2C(=O)C(N)C(=O)N(CCC(C)C)c3ccccc32)cc1 (stereo unspecified) | 115 to 116
47 | Nc1cc(CC(=O)O)cc(C(=O)O)c1 | 214 to 220
48 | CCOC(=O)C(=CNC1CC1)C(=O)c1cc(F)c(F)c(C)c1F | 73 to 75
49 | CN(C)c1ccc(NC(=O)c2cc3cc(C(F)(F)F)ccc3n2Cc2cccc(F)c2)cn1 | 192 to 193
50 | CCS(=O)(=O)N(C)C1c2cc(F)c(Cl)cc2OC(C)(C)C1OC(C)=O (stereo unspecified) | 143 to 144
51 | CCc1cn(C(CC)C(=O)N(C)C)nc1-c1ccccc1 (stereo unspecified) | 77.5 to 79
52 | COc1ccc(CCN(C)CCCNc2c(Cl)cn[nH]c2=O)cc1OC | 89 to 90

Row | Structure (SMILES) | melting point [°C]
53 | C#C[C@@]1(O)[C@@H](COC(=O)c2ccc(Cl)cc2)OC(O)[C@@H]1O (stereo partly specified) | 116 to 118
54 | Clc1ccc(-c2nc(Br)cnc2OCC2CC2)cc1 | 86 to 87
55 | O=c1[nH]c(=O)n(C2CC(O)C(CO)O2)cc1C(I)=CI (stereo unspecified) | 103 to 105
56 | COc1ccc(C(CN2CCN(Cc3ccccc3)C2=O)NC(C)=O)cc1OC (stereo unspecified) | 156
57 | CCOC(=O)CCc1cn(Cc2ccc(OCc3nc(-c4ccco4)oc3C)cc2)nc1O | 145 to 146
58 | CCCCNc1nc(=O)c2c(C)nn3c2n1CC(C)=C3c1ccccc1 | > 300
59 | Cc1c(-c2ccc(O)cc2)nnn1-c1ccc(C(F)(F)F)cc1Cl | 176 to 177
60 | CCc1noc(C)c1-c1[nH]c2ccccc2c1C(=O)CCC(=O)N(C)C | 144 to 148
61 | Cc1noc(NS(=O)(=O)c2ccccc2-c2ccc(-c3ncco3)cc2CN(C)C(=O)C2CC2)c1C | 92 to 102
62 | c1ccc2c(c1)c1ccccc1n2-c1ccc(-n2ccnc2-c2nccn2-c2ccc(-n3c4ccccc4c4ccccc43)cc2)cc1 | 270 to 274
63 | O=C(O)Cc1ccc(NC(=O)CCCCCNC(=O)OCc2ccccc2)cc1 | 136 to 138
64 | O=C1C(CCO)Oc2cc([N+](=O)[O-])ccc2N1Cc1ccccc1Cl (stereo unspecified) | 106 to 108
65 | O=C(NNC(=O)C(F)(F)F)c1ccccc1 | 153 to 154
66 | CCCCCCCCCOc1ccc(F)c(C(N)=O)c1Cl | 64 to 66
67 | CC(C)(O)c1ccc(CCl)cc1 | 101 to 103
68 | CCc1c(OC)nc2nc(-c3nnc(C(F)(F)F)o3)cn2c1C | 210 to 211
69 | O=C(O)CCNC(=O)c1cc([N+](=O)[O-])c2ccccc2c1O | 254
70 | O=C(Nc1cc(-c2nc(Cc3ccccc3)c[nH]2)ccn1)c1ccccc1 | 110 to 112
71 | O=C(CNC(=O)OCc1ccccc1)Nn1cccc1C(=O)c1ccccc1 | 96 to 98
72 | O=[N+]([O-])c1cc(-c2nc3ccccc3s2)ccc1O | 214 to 215
73 | Cn1ccc(C(=O)c2ccc(Cc3ccc(F)cc3)o2)c(O)c1=O | 145 to 147
74 | Nc1ccccc1Nc1ccc(Oc2ccc(C(c3ccc(Oc4ccc(Nc5ccccc5N)cc4)cc3)(C(F)(F)F)C(F)(F)F)cc2)cc1 | 62.4 to 64.1
75 | Cc1cc(OC(F)F)nc(NC(=O)NS(=O)(=O)c2ccccc2OC(F)F)n1 | 163 to 164
76 | COCOc1cc(C(F)(F)F)ccc1-c1cc(Oc2ccc3cccnc3c2)ncn1 | 98.8 to 99.4
77 | Cc1cc(F)c(Cl)cc1[N+](=O)[O-] | 57 to 58
78 | O=c1nc(N(Cc2nnn[nH]2)c2ccc(Cl)cc2)sc2ncccc12 | 258 to 259

Row | Structure (SMILES) | melting point [°C]
79 | CS(=O)(=O)NC[C@@H]1CN(c2ccc(N3CCC(=CC#N)CC3)c(F)c2)C(=O)O1 | 235 to 237
80 | CC(C)(C)OC(=O)CC1(CC(=O)O)CCC(=O)Nc2ccccc21 (stereo unspecified) | 117 to 119
81 | Cc1ccc(CCCCCCCCCCC(Cl)(Cl)C(=O)O)cc1 | 58 to 59
82 | NC(=NO)c1ccccc1C(F)(F)F | 74 to 76
83 | OC(CCl)CN1CCN(C(c2ccccc2)c2ccccc2)CC1 (stereo unspecified) | 114 to 116
84 | Cc1nc(C(O)(c2nc(C)c(C)s2)C(F)(F)F)sc1C | 122 to 124
85 | CCN(CC)c1ccc(C2(c3ccc(N(C)C)cc3N(C)C)OC(=O)c3ccccc32)cc1 (stereo unspecified) | 168 to 170
86 | CC(=Cc1ccc(O)cc1)c1ccc2c(c1)C(C)(C)C(O)C2(C)C (stereo unspecified) | 148 to 149
87 | CC1=C(C)[C@]23OC[C@](C)(CCC2=C(C)C1=O)O3 | 99 to 100
88 | CCOC(=O)C=CC(=O)N(CC(C)(C)C)c1sc(Cl)cc1C(=O)c1ccccc1Cl | 79 to 81
89 | CCCCNC(=O)COc1ccn2nc(-c3ccccc3)c(-c3ccc(=O)n(C(C)C)n3)c2c1 | 151 to 152
90 | O=C(O)c1cccc(-c2nc(-c3ccc(C(F)(F)F)cc3)co2)c1 | 206 to 208
91 | NCCOc1cc(F)cc2c1OCCC2 | 68 to 70
92 | Cc1ccc2c(c1)CC1(CCC(=O)CC1)C2 | 68 to 70
93 | Cn1nnc2c3nc(O)c(O)nc3ccc21 | > 300
94 | CSc1cc(C=O)nn1C | 47 to 48
95 | Nc1c(NC(=O)CC23CCCN2CCC3)cnc2ccccc12 | 205 to 209
96 | C=CCOC(=O)C(C#N)=C1Nc2ccccc2O1 | 181 to 183
97 | COc1ccc(C(=O)Cc2ccccc2)cc1OC1CCCC1 | 117 to 119
98 | c1ccc2cc(OCCCNN3CCCCC3)ccc2c1 | 78
99 | CSc1ccc(-c2coc3ccc(-c4nnc([C@H](C)O)o4)cc23)cc1 | 164 to 165
100 | CCCc1nn(-c2ccc(C(F)(F)F)cn2)cc1CCCOc1cccc(CC(=O)O)c1F | 109 to 110
101 | Cc1cc(Cl)ccc1N=CNN=C(c1ccc(Cl)cc1)c1ccc(OS(C)(=O)=O)cc1 | 60 to 100
